This assay concerns the target Estrogen receptor (Rattus norvegicus) (UniProt P06211+Q62986). Kind of assay: Displacement of [3H]estradiol from estrogen receptor of rat uterine cytosol. The format is protein assay.

The molecule `Oc1ccc(C2=C(c3ccccc3)Cc3cc(O)ccc32)cc1` had an RBA of 4.7%.

As to `Oc1ccc(C2=C(c3ccc(Br)cc3)Cc3cc(O)ccc32)cc1`, the RBA was 0.76%. With `O=[N+]([O-])c1ccc(C2=C(c3ccc(O)cc3)c3ccc(O)cc3C2)cc1` the figure was 0.69%; with `Oc1ccc(C2=C(c3ccccc3C(F)(F)F)Cc3cc(O)ccc32)cc1`, 38%.

The molecule `O=[N+]([O-])c1ccc(C2=C(c3ccccc3)c3ccc(O)cc3C2)cc1` displayed an RBA of 0.46%. With `Cc1ccccc1C1=C(c2ccc(O)cc2)c2ccc(O)cc2C1` the figure was 30%; with `Oc1ccc(C2=C(c3cccnc3)Cc3cc(O)ccc32)cc1`, 0.05%; with `Oc1ccc(C2=C(c3ccccc3)c3ccc(O)cc3C2)cc1`, 28%. Then `N#Cc1ccc(C2=C(c3ccc(O)cc3)c3ccc(O)cc3C2)cc1`, with 1%. On to `CC1C(c2ccccc2)=C(c2ccccc2)c2ccc(O)cc21` (stereo unspecified), for which the RBA is 12%. As to `O=[N+]([O-])c1cccc(C2=C(c3ccc(O)cc3)c3ccc(O)cc3C2)c1`, the RBA worked out at 0.6%.

The values above are taken from ChEMBL document CHEMBL1124201, “Optimizing of 2,3-diarylindenes as fluorescent estrogens: variation of the acceptor group, ortho substitution of the 2-ring, and C-1 methylation” (J Med Chem, 1988).
